Measurements reported in US20240067632A1, “WEE1 Degrading Compounds and Uses Thereof” (Bristol-Myers Squibb Company, priority 2022, published 2024).
Read-outs that look alike come from different tables or passages of the source.

Columns and labels:
WEE1 = target: T1, WEE1 (Homo sapiens, UniProt P30291+Q96SW2); assay: WEE1-ePL degradation assay (LentiX-WEE1-ePL-GSPT1-ND cells, InCELL Hunter luminescence, 4 h); format: cell-based; settings: 293T-LentiX WEE1-ePL cells; for DC50: read-out: 293T-LentiX WEE1-ePL Degradation 4 hr (EC50)
T1 construct: C-terminal ePL-tagged (DiscoverX, Fremont, CA) full-length WEE1 expression construct; expressed in transfected cells; host or cells: LentiX-HEK293T (Invitrogen), lentiviral transduction; co-expressing GSPT1-GN (G576N, lacking the first 158 amino acids)
Summary of the method: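 First, compounds were pre-plated as 10-point, 3-fold dilutions (top 1 uM or 10 uM) with DMSO control; next, WEE1-ePL-expressing HEK293T cells were added and held 4 h at 37 °C; finally, InCELL Hunter reagent was applied for 30 min before luminescence reading. A 4PL fit gave EC50 and Ymin.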

MKN45 cells = assay: MKN45 cell proliferation assay (Cell-Titer-Glo, 120 h); format: cell-based; settings: for EC50: Homo sapiens, MKN-45, 120 h, Cell-Titer-Glo, read-out: MKN45 Cell Prolif. 120 hr (EC50); for MKN45 Cell Prolif. 120 hr (Ymin-Obs): minimal percent of DMSO control observed in the concentrations tested
Summary of the method: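 Cells seeded at 400/well onto pre-printed 10-point half-log dilutions (top 1 or 10 uM, 0.1% DMSO final), in triplicate, and grown 120 h at 37 C. Viability by Cell-Titer-Glo luminescence, blank-subtracted and normalised to DMSO; EC50 from four-parameter logistic fit, with observed minimal % of control recorded as Ymin-obs.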

[1] = lower limit of the fit (0 = luciferase inhibitor, Ymax = DMSO control)

SMILES	293T-LentiX WEE1-ePL Degradation 4 hr (Ymin) (WEE1; [1])	DC50 (WEE1)	EC50 (MKN45 cells; growth inhibition)	293T-LentiX WEE1-ePL Degradation 4 hr (Ymin) (WEE1; lower limit of the fit (Ymin=0 luciferase inhibitor, Ymax DMSO control))	EC50 (MKN45 cells)	MKN45 Cell Prolif. 120 hr (Ymin-Obs) (MKN45 cells)
C[C@@H]1CN(Cc2ccc3nc([C@H]4CCOC(C)(C)C4)ccc3c2)C[C@H]1Oc1ccc2c(c1)CN([C@H]1CCC(=O)NC1=O)C2=O [(3S)-3-(5-{[(3S,4R)-1-({2-[(4S)-2,2-dimethyloxan-4-yl]quinolin-6-yl}methyl)-4-methylpyrrolidin-3-yl]oxy}-1-oxo-2,3-dihydro-1H-isoindol-2-yl)piperidine-2,6-dione]		3.51 nM		24.63	1.44 nM	9.434
O=C1CCC(N2Cc3cc(O[C@H]4CCN(Cc5ccc6nc([C@@H]7CC[C@H](O)C7)ccc6c5)C4)ccc3C2=O)C(=O)N1 (stereo partly drawn) [3-(5-{[(3S)-1-({2-[(1R,3S)-3-hydroxycyclopentyl]quinolin-6-yl}methyl)pyrrolidin-3-yl]oxy}-1-oxo-2,3-dihydro-1H-isoindol-2-yl)piperidine-2,6-dione]	32	3.33 nM	0.655 nM			7.585
O=C1CCC(N2Cc3cc(O[C@H]4CCN(Cc5cc6c(F)cccc6cn5)C4)ccc3C2=O)C(=O)N1 (stereo partly drawn) [3-(5-{[(3S)-1-[(5-fluoroisoquinolin-3-yl)methyl]pyrrolidin-3-yl]oxy}-1-oxo-2,3-dihydro-1H-isoindol-2-yl)piperidine-2,6-dione]	43.45	13.3 nM	185 nM			53.33
O=C1CCC(N2Cc3cc(O[C@H]4CCN(Cc5ccc6nc([C@@H]7CCCOC7)ncc6c5)C4)ccc3C2=O)C(=O)N1 (stereo partly drawn) [3-(5-{[(3S)-1-({2-[(3S)-oxan-3-yl]quinazolin-6-yl}methyl)pyrrolidin-3-yl]oxy}-1-oxo-2,3-dihydro-1H-isoindol-2-yl)piperidine-2,6-dione]	31	33.8 nM	19.4 nM			5.31
CNC(=O)c1ncc2cc(CN3CC[C@H](Oc4ccc5c(c4)CN(C4CCC(=O)NC4=O)C5=O)C3)ccc2n1 (stereo partly drawn) [6-{[(3S)-3-{[2-(2,6-dioxopiperidin-3-yl)-1-oxo-2,3-dihydro-1H-isoindol-5-yl]oxy}pyrrolidin-1-yl]methyl}-N-methylquinazoline-2-carboxamide]	38	175 nM	337 nM			8.51
Cc1cc(O)c2cc(CN3CC[C@H](Oc4ccc5c(c4)CN(C4CCC(=O)NC4=O)C5=O)C3)ccc2n1 (stereo partly drawn) [3-(5-{[(3S)-1-[(4-hydroxy-2-methylquinolin-6-yl)methyl]pyrrolidin-3-yl]oxy}-1-oxo-2,3-dihydro-1H-isoindol-2-yl)piperidine-2,6-dione]	73	528 nM	> 10000 nM			87.83
O=C1CCC(N2Cc3cc(O[C@H]4CCN(Cc5ccc6nc([C@H]7CC[C@@H](O)CC7)ccc6c5)C4)ccc3C2=O)C(=O)N1 (stereo partly drawn) [3-(1-oxo-5-{[(3S)-1-({2-[(1s,4s)-4-hydroxycyclohexyl]quinolin-6-yl}methyl)pyrrolidin-3-yl]oxy}-2,3-dihydro-1H-isoindol-2-yl)piperidine-2,6-dione]	33	1.03 nM	0.329 nM			7.956
C#Cc1ccc2cc(CN3CC[C@H](Oc4ccc5c(c4)CN(C4CCC(=O)NC4=O)C5=O)C3)ccc2n1 (stereo partly drawn) [3-(5-{[(3S)-1-[(2-ethynylquinolin-6-yl)methyl]pyrrolidin-3-yl]oxy}-1-oxo-2,3-dihydro-1H-isoindol-2-yl)piperidine-2,6-dione]	32	3.14 nM	260 nM			6.523
N#Cc1ncc2cc(CN3CC[C@H](Oc4ccc5c(c4)CN(C4CCC(=O)NC4=O)C5=O)C3)ccc2n1 (stereo partly drawn) [6-{[(3S)-3-{[2-(2,6-dioxopiperidin-3-yl)-1-oxo-2,3-dihydro-1H-isoindol-5-yl]oxy}pyrrolidin-1-yl]methyl}quinazoline-2-carbonitrile]	35	12.1 nM	73 nM			17.27

Now from value to compound, other results behind:

293T-LentiX WEE1-ePL Degradation 4 hr (Ymin) (WEE1; [1])	DC50 (WEE1)	EC50 (MKN45 cells; growth inhibition)	293T-LentiX WEE1-ePL Degradation 4 hr (Ymin) (WEE1; lower limit of the fit (Ymin=0 luciferase inhibitor, Ymax DMSO control))	EC50 (MKN45 cells)	SMILES	MKN45 Cell Prolif. 120 hr (Ymin-Obs) (MKN45 cells)
31	17.8 nM	14.6 nM			O=C1CC[C@H](N2Cc3cc(O[C@H]4CCN(Cc5ccc6nc([C@H]7CCOC7)ncc6c5)C4)ccc3C2=O)C(=O)N1 [(3S)-3-(1-oxo-5-{[(3S)-1-({2-[(3R)-oxolan-3-yl]quinazolin-6-yl}methyl)pyrrolidin-3-yl]oxy}-2,3-dihydro-1H-isoindol-2-yl)piperidine-2,6-dione]	8.266
35	6.39 nM	2.88 nM			O=C1CCC(N2Cc3cc(O[C@H]4CCN(Cc5ccc6nc(Oc7ccccn7)ccc6c5)C4)ccc3C2=O)C(=O)N1 (stereo partly drawn) [3-(1-oxo-5-{[(3S)-1-{[2-(pyridin-2-yloxy)quinolin-6-yl]methyl}pyrrolidin-3-yl]oxy}-2,3-dihydro-1H-isoindol-2-yl)piperidine-2,6-dione]	7.62
34	3.25 nM	19.1 nM			COc1cnc2ccc(CN3CC[C@H](Oc4ccc5c(c4)CN(C4CCC(=O)NC4=O)C5=O)C3)cc2c1 (stereo partly drawn) [3-(5-{[(3S)-1-[(3-methoxyquinolin-6-yl)methyl]pyrrolidin-3-yl]oxy}-1-oxo-2,3-dihydro-1H-isoindol-2-yl)piperidine-2,6-dione]	12.81
47	61.5 nM	1430 nM			N#Cc1ccc2cc(CN3CC[C@H](Oc4ccc5c(c4F)CN(C4CCC(=O)NC4=O)C5=O)C3)ccc2n1 (stereo partly drawn) [6-{[(3S)-3-{[2-(2,6-dioxopiperidin-3-yl)-4-fluoro-1-oxo-2,3-dihydro-1H-isoindol-5-yl]oxy}pyrrolidin-1-yl]methyl}quinoline-2-carbonitrile]	62.465
26.59	2.71 nM	20 nM			CN(C)c1ccc2cc(CN3CC[C@H](Oc4ccc5c(c4)CN(C4CCC(=O)NC4=O)C5=O)C3)ccc2n1 (stereo partly drawn) [3-(5-{[(3S)-1-{[2-(dimethylamino)quinolin-6-yl]methyl}pyrrolidin-3-yl]oxy}-1-oxo-2,3-dihydro-1H-isoindol-2-yl)piperidine-2,6-dione]	12.34
30	4.67 nM	5.04 nM			O=C1CCC(N2Cc3cc(O[C@H]4CCN(Cc5ccc6ncc(C7COC7)cc6c5)C4)ccc3C2=O)C(=O)N1 (stereo partly drawn) [3-(5-{[(3S)-1-{[3-(oxetan-3-yl)quinolin-6-yl]methyl}pyrrolidin-3-yl]oxy}-1-oxo-2,3-dihydro-1H-isoindol-2-yl)piperidine-2,6-dione]	8.08
28.66	3.45 nM	30.4 nM			O=C1CCC(N2Cc3cc(O[C@H]4CCN(Cc5ccc6ncccc6c5)C4)ccc3C2=O)C(=O)N1 (stereo partly drawn) [3-(1-oxo-5-{[(3S)-1-[(quinolin-6-yl)methyl]pyrrolidin-3-yl]oxy}-2,3-dihydro-1H-isoindol-2-yl)piperidine-2,6-dione]	14.87
